# Measurements as given in US9113629B2, “4-amino-6-(4-substituted-phenyl)-picolinates and 6-amino-2-(4-substituted-phenyl)-pyrimidine-4-carboxylates and their use as herbicides” (DOW AGROSCIENCES LLC, priority 2013, dated 2015).
# Like-named read-outs stand apart in the source and are kept apart here.
# Assays:
# [1] = test system: Key Broadleaf Weed and Crop Species; assay: Post-emergent Test II herbicidal activity (Table 5); type: in vivo; settings: post-emergence, 336 h, 14 days after application; for pest or weed control at 70 g/ha: application rate 70 g ai/ha; for pest or weed control at 140 g/ha: application rate 140 g ai/ha
# Summary of the method: (§1)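 Greenhouse post-emergent assay: seedlings (first/second true leaf) in Metro-Mix 360 were sprayed at 187 L/ha at a top rate plus twofold dilutions down to 1/16×; solvent-blank controls were included. Percent visual injury was read at 14 d.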
# [2] = test system: Key Grass and Sedge Weeds as well as Grass Crops; assay: Post-emergent Test II herbicidal activity (Table 6); type: in vivo; settings: post-emergence, 336 h; for pest or weed control at 70 g/ha: 70 g ai/ha; for pest or weed control at 140 g/ha: 140 g ai/ha
# Summary of the method: as §1
# [3] = ABUTH: velvetleaf (Abutilon theophrasti), read-out: Visual Growth Reduction (%) 14 Days After Application, ABUTH
# [4] = AMARE: redroot pigweed (Amaranthus retroflexus), read-out: Visual Growth Reduction (%) 14 Days After Application, AMARE
# [5] = BRSNN: oilseed-rape, canola (Brassica napus), read-out: Visual Growth Reduction (%) 14 Days After Application, BRSNN
# [6] = CHEAL: lambsquarters (Chenopodium album), read-out: Visual Growth Reduction (%) 14 Days After Application, CHEAL
# [7] = EPHHL: wild poinsettia (Euphorbia heterophylla), read-out: Visual Growth Reduction (%) 14 Days After Application, EPHHL
# [8] = HELAN: sunflower (Helianthus annuus), read-out: Visual Growth Reduction (%) 14 Days After Application, HELAN
# [9] = VIOTR: wild pansy (Viola tricolor), read-out: Visual Growth Reduction (%) 14 Days After Application, VIOTR
# [10] = CYPES: yellow nutsedge (Cyperus esculentus), read-out: Visual Growth Reduction (%) 14 Days After Application, CYPES
# [11] = DIGSA: crabgrass (Digitaria sanguinalis), read-out: Visual Growth Reduction (%) 14 Days After Application, DIGSA
# [12] = ECHCG: barnyardgrass (Echinochloa crus-galli), read-out: Visual Growth Reduction (%) 14 Days After Application, ECHCG
# [13] = ORYSA: rice (Oryza sativa), crop, read-out: Visual Growth Reduction (%) 14 Days After Application, ORYSA
# [14] = SETFA: giant foxtail (Setaria faberi), read-out: Visual Growth Reduction (%) 14 Days After Application, SETFA
# [15] = SORVU: grain sorghum (Sorghum vulgare), read-out: Visual Growth Reduction (%) 14 Days After Application, SORVU
# [16] = TRZSS (wheat, Triticum aestivum), crop, read-out: Visual Growth Reduction (%) 14 Days After Application, TRZSS
# [17] = ZEAMX: maize, corn (Zea mays), crop, read-out: Visual Growth Reduction (%) 14 Days After Application, ZEAMX
smiles,measurement,setting,value
COC(=O)c1nc(-c2ccccc2)c(F)c(N)c1Cl [Compound 181],pest or weed control at 70 g/ha,[1]; [3],95 to 100%
same,pest or weed control at 140 g/ha,[1]; [3],95 to 100%
same,pest or weed control at 70 g/ha,[1]; [4],85 to 94%
same,pest or weed control at 140 g/ha,[1]; [4],95 to 100%
same,pest or weed control at 70 g/ha,[1]; [5],85 to 94%
same,pest or weed control at 140 g/ha,[1]; [5],95 to 100%
same,pest or weed control at 70 g/ha,[1]; [6],95 to 100%
same,pest or weed control at 140 g/ha,[1]; [6],95 to 100%
same,pest or weed control at 70 g/ha,[1]; [7],85 to 94%
same,pest or weed control at 140 g/ha,[1]; [7],95 to 100%
same,pest or weed control at 70 g/ha,[1]; [8],95 to 100%
same,pest or weed control at 140 g/ha,[1]; [8],95 to 100%
same,pest or weed control at 70 g/ha,[1]; [9],0 to 29%
same,pest or weed control at 140 g/ha,[1]; [9],0 to 29%
same,pest or weed control at 70 g/ha,[2]; [10],95 to 100%
same,pest or weed control at 140 g/ha,[2]; [10],95 to 100%
same,pest or weed control at 70 g/ha,[2]; [11],0 to 29%
same,pest or weed control at 140 g/ha,[2]; [11],0 to 29%
same,pest or weed control at 70 g/ha,[2]; [12],0 to 29%
same,pest or weed control at 140 g/ha,[2]; [12],0 to 29%
same,pest or weed control at 70 g/ha,[2]; [13],0 to 29%
same,pest or weed control at 140 g/ha,[2]; [13],0 to 29%
same,pest or weed control at 70 g/ha,[2]; [14],0 to 29%
same,pest or weed control at 140 g/ha,[2]; [14],0 to 29%
same,pest or weed control at 70 g/ha,[2]; [15],0 to 29%
same,pest or weed control at 140 g/ha,[2]; [15],30 to 44%
same,pest or weed control at 70 g/ha,[2]; [16],0 to 29%
same,pest or weed control at 140 g/ha,[2]; [16],0 to 29%
same,pest or weed control at 70 g/ha,[2]; [17],0 to 29%
same,pest or weed control at 140 g/ha,[2]; [17],30 to 44%
